Source: patent US20220380341A1, “INHIBITORS OF HIV-1 NEF FOR THE TREATMENT OF HIV DISEASE” (priority 2018, published 2022)
Read-outs that look alike come from different tables or passages of the source.

Columns and labels:
TZM-bl cell line = format: cell-based
Outline: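 Read-out is luciferase from an integrated HIV-1 LTR reporter in TZM-bl cells, 48 h after HIV-1NL4-3 infection in the presence of 1 μM compound. Scale set by DMSO-treated wild-type-infected cells (0%) and Nef-defective virus (100% Nef-dependent effect). Cell Titer Blue measures cytotoxicity without virus.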

HIV-1 NefNL4-3 = HIV-1 NefNL4-3 (Human immunodeficiency virus type 1 group M subtype B, UniProt P03406, A33V/T15A/T51N/V11I); test: Surface plasmon resonance binding to recombinant full-length Nef (NL4-3); conditions: for RU30/RUNef (extent of binding): response units at 30 μM relative to Nef immobilized on the SPR chip
HIV-1NL4-3 = test: HIV-1 infectivity assay in TZM-bl reporter cell line (LTR-luciferase, 48 h); format: cell-based; conditions: for inhibition at 1 µM: Human immunodeficiency virus 1, TZM-bl
Outline: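 Luciferase read-out 48 h post-infection; compound at 1 μM during HIV-1NL4-3 infection of TZM-bl cells. Percent inhibition scaled to DMSO wild-type virus (0%) and DMSO Nef-defective virus (100% of Nef-dependent effect). Viability checked separately in uninfected cells by Cell Titer Blue.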

[1] = KD, M, Table 4, SPR fit 1:1 Langmuir, KD = koff/kon
[2] = Table 4, 1:1 Langmuir fit, T = 1/koff
[3] = 1.0 μM, TZM-bl reporter cell line, Table 4, read-out: % Infectivity Inhibition
[4] = 48 h, Table 1, TZM-bl cells, 1 μM, 48 h, 100% = Nef-defective HIV-1, read-out: HIV-1 Infectivity % Inhibition Norm. to Δ-Nef @ 1 μM
[5] = KD, M, Table 4, SPR fit 2-step induced fit, KD = koff/kon × koff2/(koff2 + kon2)
[6] = Nef NL4-3 Binding, SPR 2-state fitting KD, Table 1, 2-step induced-fit model
[7] = Table 1, 1:1 Langmuir fit where the KD2 cell says '1 to 1 fitting', else 2-site fit

Compound | Percent Viability @ 1 μM (TZM-bl cells) (TZM-bl cell line; human, 1 μM) | Kd (HIV-1 NefNL4-3) | inhibition at 1 µM (HIV-1NL4-3; [4]) | further results
O=C(Cc1ccncc1)N1CCCC1c1nn(-c2nc3ccccc3[nH]2)c(O)c1CCc1ccc(F)cc1 (centres unmarked) [Compound I-760, 1-{2-[1-(1H-1,3-benzodiazol-2-yl)-4-[2-(4-fluorophenyl)ethyl]-5-hydroxy-1H-pyrazol-3-yl]pyrrolidin-1-yl}-2-(pyridin-4-yl)ethan-1-one] | 96.8% | 780 nM | 46.5% | % Cell Viability (TZM-bl cell line; human, 1 μM): 96.8%; Kd (HIV-1 NefNL4-3; [1]): 780 nM; T, minutes (residence time) (HIV-1 NefNL4-3; [2]): 7.31E + 00 minutes; RU30/RUNef (extent of binding) (HIV-1 NefNL4-3): 1.38E- 03; inhibition at 1 µM (HIV-1NL4-3; [3]): 46.5%
CC(C)(O)C(=O)N1CCCC1c1nn(-c2nc3ccccc3[nH]2)c(O)c1CCc1ccc(F)cc1 (centres unmarked) [Compound I-761, 1-{2-[1-(1H-1,3-benzodiazol-2-yl)-4-[2-(4-fluorophenyl)ethyl]-5-hydroxy-1H-pyrazol-3-yl]pyrrolidin-1-yl}-2-hydroxy-2-methylpropan-1-one] | 101.5% | 854 nM | -3.8% | 
O=C(c1c(O)cc(O)cc1O)N1CCCC1c1nn(-c2nc3ccccc3[nH]2)c(O)c1CCc1ccc(F)cc1 (centres unmarked) [Compound I-762, 2-{2-[1-(1H-1,3-benzodiazol-2-yl)-4-[2-(4-fluorophenyl)ethyl]-5-hydroxy-1H-pyrazol-3-yl]pyrrolidine-1-carbonyl}benzene-1,3,5-triol] | 98.9% | 277 nM | 25.7% | % Cell Viability (TZM-bl cell line; human, 1 μM): 98.6%; Kd (HIV-1 NefNL4-3; [5]): 3.98 nM; Kd (HIV-1 NefNL4-3; [6]): 3.98 nM; Kd (HIV-1 NefNL4-3; read-out: Nef NL4-3 Binding, SPR 1:1 or 2-site fitting KD2, Table 1, 2-site fit, second component): 7460 nM; inhibition at 1 µM (HIV-1NL4-3; [3]): 25.7%
O=C(CN1CCOCC1)N1CCCC1c1nn(-c2nc3ccccc3[nH]2)c(O)c1CCc1ccc(F)cc1 (centres unmarked) [Compound I-763, 1-{2-[1-(1H-1,3-benzodiazol-2-yl)-4-[2-(4-fluorophenyl)ethyl]-5-hydroxy-1H-pyrazol-3-yl]pyrrolidin-1-yl}-2-(morpholin-4-yl)ethan-1-one] | 97.6% | 422 nM | 11% | 
O=C(OCc1ccccc1)N1CCC(Cc2nn(-c3nc4ccccc4[nH]3)c(O)c2CCc2ccc(F)cc2)CC1 [Compound I-764, benzyl4-{[1-(1H-1,3-benzodiazol-2-yl)-4-[2-(4-fluorophenyl)ethyl]-5-hydroxy-1H-pyrazol-3-yl]methyl}piperidine-1-carboxylate] | 100.6% |  | 47.4% | Nef NL4-3 Binding, SPR 1:1 or 2-site fitting KD1 (HIV-1 NefNL4-3; [7]): No Interaction
O=C(C1CCOC1)N1CCC(Cc2nn(-c3nc4ccccc4[nH]3)c(O)c2CCc2ccc(F)cc2)CC1 (centres unmarked) [Compound I-765, 1-(1H-1,3-benzodiazol-2-yl)-4-[2-(4-fluorophenyl)ethyl]-3-{[1-(oxolane-3-carbonyl)piperidin-4-yl]methyl}-1H-pyrazol-5-ol] | 99.3% |  | 13.5% | Nef NL4-3 Binding, SPR 1:1 or 2-site fitting KD1 (HIV-1 NefNL4-3; [7]): No Interaction
O=C(c1cccc(O)n1)N1CCC(Cc2nn(-c3nc4ccccc4[nH]3)c(O)c2CCc2ccc(F)cc2)CC1 [Compound I-766, 6-(4-{[1-(1H-1,3-benzodiazol-2-yl)-4-[2-(4-fluorophenyl)ethyl]-5-hydroxy-1H-pyrazol-3-yl]methyl}piperidine-1-carbonyl)pyridin-2-ol] | 99.5% | 481 nM | 46.9% | 
O=C(c1cnccn1)N1CCC(Cc2nn(-c3nc4ccccc4[nH]3)c(O)c2CCc2ccc(F)cc2)CC1 [Compound I-767, 1-(1H-1,3-benzodiazol-2-yl)-4-[2-(4-fluorophenyl)ethyl]-3-{[1-(pyrazine-2-carbonyl)piperidin-4-yl]methyl}-1H-pyrazol-5-ol] | 97.6% | 425 nM | 18.9% | 
CN1CCN(CC(=O)N2CCC(Cc3nn(-c4nc5ccccc5[nH]4)c(O)c3CCc3ccc(F)cc3)CC2)CC1 [Compound I-768, 1-(4-{[1-(1H-1,3-benzodiazol-2-yl)-4-[2-(4-fluorophenyl)ethyl]-5-hydroxy-1H-pyrazol-3-yl]methyl}piperidin-1-yl)-2-(4-methylpiperazin-1-yl)ethan-1-one] | 99.8% | 3840 nM | -34.5% | 
O=C(COCc1ccncc1)N1CCC(Cc2nn(-c3nc4ccccc4[nH]3)c(O)c2CCc2ccc(F)cc2)CC1 [Compound I-769, 1-(4-{[1-(1H-1,3-benzodiazol-2-yl)-4-[2-(4-fluorophenyl)ethyl]-5-hydroxy-1H-pyrazol-3-yl]methyl}piperidin-1-yl)-2-[(pyridin-4-yl)methoxy]ethan-1-one] |  |  |  | % Cell Viability (TZM-bl cell line; 1.0 μM, uninfected TZM-bl, CellTiter-Blue, Table 4): 98.8%; Percent Viability @ 1 μM (TZM-bl cells) (TZM-bl cell line; Table 1, uninfected TZM-bl cells, 1 μM, Cell Titer Blue): 98.8%; Kd (HIV-1 NefNL4-3; Table 1, 1:1 Langmuir fit where the KD2 cell says '1 to 1 fitting', else 2-site fit, read-out: Nef NL4-3 Binding, SPR 1:1 or 2-site fitting KD1): 798 nM; T, minutes (residence time) (HIV-1 NefNL4-3; [2]): 9.47E + 00 minutes; Kd (HIV-1 NefNL4-3; Table 4, SPR fit 1:1 Langmuir, KD = koff/kon, read-out: KD): 798 nM; RU30/RUNef (extent of binding) (HIV-1 NefNL4-3): 4.88E- 03; % Infectivity Inhibition (HIV-1NL4-3; 1.0 μM, TZM-bl reporter cell line, Table 4): 26.5%; HIV-1 Infectivity % Inhibition Norm. to Δ-Nef @ 1 μM (HIV-1NL4-3; Table 1, TZM-bl cells, 1 μM, 48 h, 100% = Nef-defective HIV-1): 26.5%
CC(C)(C)OC(=O)N1CCC(Cc2nn(-c3nc4ccccc4[nH]3)c(O)c2CCc2ccc(F)cc2)CC1 [Compound I-770] | 99.7% | 1.05 nM | 49.2% | % Cell Viability (TZM-bl cell line; human, 1 μM): 99.7%; Kd (HIV-1 NefNL4-3; [1]): 1.05 nM; T, minutes (residence time) (HIV-1 NefNL4-3; [2]): 1.65E + 04 minutes; RU30/RUNef (extent of binding) (HIV-1 NefNL4-3): 3.04E- 03; inhibition at 1 µM (HIV-1NL4-3; [3]): 49.2%
CS(=O)(=O)N1CCC(Cc2nn(-c3nc4ccccc4[nH]3)c(O)c2CCc2ccc(F)cc2)CC1 [Compound I-771, 1-(1H-1,3-benzodiazol-2-yl)-4-[2-(4-fluorophenyl)ethyl]-3-[(1-methanesulfonylpiperidin-4-yl)methyl]-1H-pyrazol-5-ol] | 100.1% | 965 nM | 13.1% | 
CC(=O)N1CCC(Cc2nn(-c3nc4ccccc4[nH]3)c(O)c2CCc2ccc(F)cc2)CC1 [Compound I-772, 1-(4-{[1-(1H-1,3-benzodiazol-2-yl)-4-[2-(4-fluorophenyl)ethyl]-5-hydroxy-1H-pyrazol-3-yl]methyl}piperidin-1-yl)ethan-1-one] | 100.1% | 858 nM | 49.6% | 
O=C(OCc1ccccc1)N1CCCC(Cc2nn(-c3nc4ccccc4[nH]3)c(O)c2CCc2ccc(F)cc2)C1 (centres unmarked) [Compound I-773, benzyl 3-{[1-(1H-1,3-benzodiazol-2-yl)-4-[2-(4-fluorophenyl)ethyl]-5-hydroxy-1H-pyrazol-3-yl]methyl}piperidine-1-carboxylate] | 101.8% | 55.9 nM | 25.5% | 
O=S(=O)(NCc1nn(-c2nc3ccccc3[nH]2)c(O)c1CCc1ccc(F)cc1)c1cccnc1 [Compound I-774, N-{[1-(1H-1,3-benzodiazol-2-yl)-4-[2-(4-fluorophenyl)ethyl]-5-hydroxy-1H-pyrazo1-3-y1]methyl}pyridine-3-sulfonamide] | 94.4% | 252 nM | -0.1% | % Cell Viability (TZM-bl cell line; human, 1 μM): 94.4%; Kd (HIV-1 NefNL4-3; [5]): 27.5 nM; Kd (HIV-1 NefNL4-3; [6]): 27.5 nM; T, minutes (residence time) (HIV-1 NefNL4-3; Table 4, 2-step induced fit, T = 1/koff2): 1.09E + 02 minutes; RU30/RUNef (extent of binding) (HIV-1 NefNL4-3): 2.56E- 03; inhibition at 1 µM (HIV-1NL4-3; [3]): 0%
